# Laboratory results taken from JP2013032353A, “ロキソプロフェン含有医薬組成物” (priority 2011, dated 2013).
# Tests used:
# [1] = Interaction study: storage of loxoprofen sodium hydrate/drug mixtures and of the single drugs at 60 °C (Test Examples 1, 4, 7, 10, 13, 16, 18, 20, 21, 23, 25, 27); format: physicochemical; settings: stored 1 week in glass bottle (3K), evaluated at start, 1 day, 3 days (2 days in Test Examples 10 and 16) and 1 week
# [2] = system: gastric mucosal injury caused by loxoprofen [ロキソプロフェンに起因する胃粘膜障害]; assay: Suppression of loxoprofen-induced gastrointestinal injury in rats (Test Examples 3, 6, 9, 12, 15, 24); format: in vivo, rat (Wistar); settings: rat, 1 h before loxoprofen sodium hydrate 120 mg/kg p.o., result in words
Compound,state in the glass bottle on storage [1],also measured
CN(C)CCOC(c1ccc(Cl)cc1)c1ccccn1 (centres unmarked) [カルビノキサミンマレイン酸塩],変化は生じなかった,"reduction of loxoprofen-induced gastric mucosal injury ([2]; oral, 0.75, 75 mg/5 mL/kg): 軽減した"
CN1CCC[C@@H]1CCO[C@](C)(c1ccccc1)c1ccc(Cl)cc1 [クレマスチンフマル酸塩],変化は生じなかった,"reduction of loxoprofen-induced gastric mucosal injury ([2]; oral, 1 mg/5 mL/kg): 軽減した"
CN(Cc1cc(Br)cc(Br)c1N)C1CCCCC1 [ブロムヘキシン塩酸塩],変化は生じなかった,–
COc1ccc2c3c1O[C@H]1[C@@H](O)CC[C@H]4[C@@H](C2)N(C)CC[C@@]341 [ジヒドロコデインリン酸塩],–,"reduction of loxoprofen-induced gastric mucosal injury ([2]; oral, 8, 24, 72 mg/5 mL/kg, n=6): 軽減した"
"CC(C(=O)[O-])c1ccc(CC2CCCC2=O)cc1.O.O.[Na+] (centres unmarked) [ロキソプロフェンナトリウム水和物, Monosodium 2-[4-[(2-oxocyclopentyl)methyl]phenyl]propanoate dihydrate]",変化は生じなかった,–
COc1ccccc1OCC(O)CO (centres unmarked) [グアイフェネシン],変化は生じなかった,–
リゾチーム塩酸塩: リゾチーム塩酸塩 (lysozyme hydrochloride),変化は生じなかった,–
C[C@@H]([C@H](O)c1ccccc1)N(C)C.Cl [dl−メチルエフェドリン塩酸塩],変化は生じなかった,"reduction of loxoprofen-induced gastric mucosal injury ([2]; oral, 20, 60, 180 mg/5 mL/kg): 軽減した"
Nc1c(Br)cc(Br)cc1CN[C@H]1CC[C@H](O)CC1 [アンブロキソール塩酸塩],変化は生じなかった,–
"CN(C)CC[C@@H](c1ccc(Cl)cc1)c1ccccn1.O=C(O)/C=C\C(=O)O [クロルフェニラミンマレイン酸塩, d−クロルフェニラミンマレイン酸塩]",変化は生じなかった,"reduction of loxoprofen-induced gastric mucosal injury ([2]; oral, 5, 40 mg/5 mL/kg): 軽減した"
CN1CCC(OC(c2ccccc2)c2ccccc2)CC1 [ジフェニルピラリン塩酸塩],変化は生じなかった,"reduction of loxoprofen-induced gastric mucosal injury ([2]; oral, 3, 10 mg/5 mL/kg): 軽減した"
COc1ccc2c(c1)[C@]13CCCC[C@@H]1[C@H](C2)N(C)CC3 [デキストロメトルファン臭化水素酸塩水和物],変化は生じなかった,–
